Data reported in ChEMBL document CHEMBL5154942, “Discovery of Clinical Candidate NTQ1062 as a Potent and Bioavailable Akt Inhibitor for the Treatment of Human Tumors” (J Med Chem, 2022).
Activity calls are given as the source filed them. The rule behind the calls is not given here.

Columns and labels:
[1] = Cmax in crab-eating monkey at 3 mg/kg, iv measured upto 24 hrs by UPLC-MS/MS analysis; format: ADME, organism-based, Macaca fascicularis; design: dose 3 mg/kg, time < 24 hrs, route iv; settings: cynomolgus monkey, in vivo
[2] = biological target: Cytochrome P450 2C19 (Homo sapiens, UniProt P33261); test: Inhibition of CYP2C19 in human liver microsomes at 0.01 to 30 uM using mephenytoin as substrate in presence of NADPH by UPLC-MS/MS analysis; format: ADME, Microsome
[3] = tested on: LNCaP; test: Induction of apoptosis in human LNCaP cells assessed as necrotic cells at […] incubated for 72 hrs by annexin V/PI double staining based flow cytometry method (reference value: 2.41%); format: functional
[4] = Metabolic stability in Crab eating monkey liver microsomes assessed as parent compound remaining at 1 uM measured after 60 mins by UPLC-MS/MS analysis; format: ADME, Macaca fascicularis, Microsome; settings: cynomolgus monkey, read-out: Stability
[5] = tested on: LNCaP; test: Induction of apoptosis in human LNCaP cells assessed as apoptotic cells at […] incubated for 72 hrs by annexin V/PI double staining based flow cytometry method (reference value: 3.95 %); format: functional; settings: dose 2.5 µM
[6] = tested on: LNCaP; test: Induction of apoptosis in human LNCaP cells assessed as viable cells at […] incubated for 72 hrs by annexin V/PI double staining based flow cytometry method (reference value: 93.63 %); format: functional; settings: read-out: Activity
[7] = biological target: Cytochrome P450 2D6 (Homo sapiens, UniProt P10635); test: Inhibition of CYP2D6 in human liver microsomes at 0.01 to 30 uM using dextromethorphan as substrate in presence of NADPH by UPLC-MS/MS analysis; format: ADME, Microsome
[8] = Metabolic stability in human liver microsomes assessed hepatic clearance at 1 uM measured after 60 mins by LC-MS/MS analysis; format: ADME, Microsome; settings: 1 h
[9] = biological target: Cytochrome P450 3A4 (Homo sapiens, UniProt P08684); test: Inhibition of CYP3A4 in human liver microsomes at 0.01 to 30 uM […] in presence of NADPH by UPLC-MS/MS analysis; format: ADME, Microsome
[10] = Cmax in Sprague-Dawley rat at 10 mg/kg, ig by UPLC-MS/MS analysis; format: ADME, organism-based; design: dose 10 mg/kg, route ig; settings: in vivo, po
[11] = Metabolic stability in Beagle dog liver microsomes assessed as intrinsic clearance at 1 uM measured after 60 mins by LC-MS/MS analysis; format: ADME, Canis lupus familiaris, Microsome; settings: 1 h
[12] = tested on: LNCaP; test: Antitumor activity against human LNCaP cells xenografted in NCG mouse assessed as tumor growth inhibition at 12.5 mg/kg administered once daily for 18 to 21 days relative to control; format: functional; settings: time 18-21 day, read-out: TGI
[13] = tested on: LNCaP; test: Induction of apoptosis in human LNCaP cells assessed as early apoptotic cells at […] incubated for 72 hrs by annexin V/PI double staining based flow cytometry method (reference value: […]); format: functional
[14] = Metabolic stability in Beagle dog liver microsomes assessed as parent compound remaining at 1 uM measured after 60 mins by UPLC-MS/MS analysis; format: ADME, Canis lupus familiaris, Microsome; settings: read-out: Stability
[15] = AUC (0 to t) in Sprague-Dawley rat at 5 mg/kg, iv measured upto 24 hrs by UPLC-MS/MS analysis; format: ADME, organism-based; design: time < 24 hrs, dose 5 mg/kg, route iv; settings: in vivo
[16] = Metabolic stability in CD-1 mouse liver microsomes assessed as parent compound remaining at 1 uM measured after 60 mins by UPLC-MS/MS analysis; format: ADME, Microsome; settings: read-out: Stability
[17] = AUC (0 to infinity) in Sprague-Dawley rat at 5 mg/kg, iv measured upto 24 hrs by UPLC-MS/MS analysis; format: ADME, organism-based; design: dose 5 mg/kg, time < 24 hrs, route iv; settings: in vivo
[18] = Cmax in NCG mouse xenografted with human LNCaP cells at 50 mg/kg administered once daily for 18 to 21 days and measured upto 10 hrs post last dose by LC-MS/MS analysis; format: ADME, organism-based; design: dose 50 mg/kg, time 18-21 day; settings: in vivo
[19] = Metabolic stability in Sprague-Dawley rat liver microsomes assessed as half life at 1 uM measured after 60 mins by LC-MS/MS analysis; format: ADME, Microsome
[20] = tested on: LNCaP; test: Induction of cell cycle arrest in human LNCap cells assessed as decrease in accumulation at S phase at 0.04 to 1 uM incubated for 24 hrs by flow cytometry; format: functional, cell-based; settings: dose 0.04-1 µM
[21] = Metabolic stability in Crab eating monkey liver microsomes assessed as half life at 1 uM measured after 60 mins by LC-MS/MS analysis; format: ADME, Macaca fascicularis, Microsome; settings: cynomolgus monkey
[22] = Metabolic stability in Crab eating monkey liver microsomes assessed as intrinsic clearance at 1 uM measured after 60 mins by LC-MS/MS analysis; format: ADME, Macaca fascicularis, Microsome; settings: cynomolgus monkey, 1 h
[23] = Metabolic stability in Beagle dog liver microsomes assessed hepatic clearance at 1 uM measured after 60 mins by LC-MS/MS analysis; format: ADME, Canis lupus familiaris, Microsome; settings: 1 h
[24] = AUC (0 to infinity) in crab-eating monkey at 6 mg/kg, ig by UPLC-MS/MS analysis; format: ADME, organism-based, Macaca fascicularis; design: time infinity, dose 6 mg/kg, route ig; settings: cynomolgus monkey, in vivo, po
[25] = Metabolic stability in Sprague-Dawley rat liver microsomes assessed as parent compound remaining at 1 uM measured after 60 mins by UPLC-MS/MS analysis; format: ADME, Microsome; settings: read-out: Stability
[26] = AUC (0 to t) in crab-eating monkey at 6 mg/kg, ig by UPLC-MS/MS analysis; format: ADME, organism-based, Macaca fascicularis; design: dose 6 mg/kg, route ig; settings: cynomolgus monkey, in vivo, po
[27] = tested on: LNCaP; test: Induction of apoptosis in human LNCap cells assessed as necrotic cells incubated for 72 hrs by annexin V/PI double staining based flow cytometry method; format: functional, cell-based; settings: dose 0.62-2.5 µM, DDE = dose-dependent effect
[28] = tested on: LNCaP; test: In vivo antitumor activity against human LNCap cells xenografted in NCG mouse assessed as tumor growth inhibition at 50 mg/kg administered once daily for 18 to 21 days relative to control; format: functional; settings: time 18-21 day, read-out: TGI
[29] = tested on: LNCaP; test: Induction of apoptosis in human LNCaP cells assessed as apoptotic cells incubated for 72 hrs by annexin V/PI double staining based flow cytometry method; format: functional, cell-based; settings: dose 0.62-2.5 µM, DDE = dose-dependent effect
[30] = Bioavailability in Sprague-Dawley rat at 10 mg/kg, ig by UPLC-MS/MS analysis; format: ADME, organism-based; settings: in vivo, po
[31] = Oral bioavailability in overnight fasted ICR mouse at 10 mg/kg measured upto 24 hrs by UPLC-MS/MS analysis; format: ADME, organism-based; settings: in vivo
[32] = tested on: LNCaP; test: Antitumor activity against human LNCaP cells xenografted in NCG mouse assessed as tumor growth inhibition at 25 mg/kg administered once daily for 18 to 21 days relative to control; format: functional; settings: time 18-21 day, read-out: TGI
[33] = Metabolic stability in CD-1 mouse liver microsomes assessed hepatic clearance at 1 uM measured after 60 mins by LC-MS/MS analysis; format: ADME, Microsome; settings: 1 h
[34] = Half life in crab-eating monkey at 6 mg/kg, ig by UPLC-MS/MS analysis; format: ADME, organism-based, Macaca fascicularis; settings: cynomolgus monkey, in vivo, po
[35] = biological target: Ribosomal protein S6 kinase alpha-4 (Homo sapiens) (UniProt O75676); test: Inhibition of MSK2 (unknown origin) at 1 uM in presence of ATP at Km concentration by mobility shift assay relative to control
[36] = Cmax in crab-eating monkey at 6 mg/kg, ig by UPLC-MS/MS analysis; format: ADME, organism-based, Macaca fascicularis; design: dose 6 mg/kg, route ig; settings: cynomolgus monkey, in vivo, po
[37] = Apparent volume of distribution at steady state in crab-eating monkey at 3 mg/kg, iv measured upto 24 hrs by UPLC-MS/MS analysis; format: ADME, organism-based, Macaca fascicularis; settings: cynomolgus monkey, in vivo, read-out: Vdss(app)

Cytochrome P450 2C19, sequence (P33261 whole entry): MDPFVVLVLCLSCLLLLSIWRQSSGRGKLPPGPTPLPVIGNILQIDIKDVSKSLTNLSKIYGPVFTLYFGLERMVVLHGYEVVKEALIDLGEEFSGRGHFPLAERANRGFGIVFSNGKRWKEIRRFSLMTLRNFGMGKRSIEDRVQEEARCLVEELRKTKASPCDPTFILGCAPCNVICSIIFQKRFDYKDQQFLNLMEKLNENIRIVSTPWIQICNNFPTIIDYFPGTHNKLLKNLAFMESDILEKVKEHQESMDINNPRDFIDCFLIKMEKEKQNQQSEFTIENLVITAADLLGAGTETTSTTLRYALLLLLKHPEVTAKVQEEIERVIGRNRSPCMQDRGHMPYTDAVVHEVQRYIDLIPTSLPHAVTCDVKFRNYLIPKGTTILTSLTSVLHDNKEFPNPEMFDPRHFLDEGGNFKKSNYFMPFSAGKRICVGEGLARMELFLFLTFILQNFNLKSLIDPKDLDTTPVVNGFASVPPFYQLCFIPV
Ribosomal protein S6 kinase alpha-4 (Homo sapiens), sequence (O75676 whole entry, looked up): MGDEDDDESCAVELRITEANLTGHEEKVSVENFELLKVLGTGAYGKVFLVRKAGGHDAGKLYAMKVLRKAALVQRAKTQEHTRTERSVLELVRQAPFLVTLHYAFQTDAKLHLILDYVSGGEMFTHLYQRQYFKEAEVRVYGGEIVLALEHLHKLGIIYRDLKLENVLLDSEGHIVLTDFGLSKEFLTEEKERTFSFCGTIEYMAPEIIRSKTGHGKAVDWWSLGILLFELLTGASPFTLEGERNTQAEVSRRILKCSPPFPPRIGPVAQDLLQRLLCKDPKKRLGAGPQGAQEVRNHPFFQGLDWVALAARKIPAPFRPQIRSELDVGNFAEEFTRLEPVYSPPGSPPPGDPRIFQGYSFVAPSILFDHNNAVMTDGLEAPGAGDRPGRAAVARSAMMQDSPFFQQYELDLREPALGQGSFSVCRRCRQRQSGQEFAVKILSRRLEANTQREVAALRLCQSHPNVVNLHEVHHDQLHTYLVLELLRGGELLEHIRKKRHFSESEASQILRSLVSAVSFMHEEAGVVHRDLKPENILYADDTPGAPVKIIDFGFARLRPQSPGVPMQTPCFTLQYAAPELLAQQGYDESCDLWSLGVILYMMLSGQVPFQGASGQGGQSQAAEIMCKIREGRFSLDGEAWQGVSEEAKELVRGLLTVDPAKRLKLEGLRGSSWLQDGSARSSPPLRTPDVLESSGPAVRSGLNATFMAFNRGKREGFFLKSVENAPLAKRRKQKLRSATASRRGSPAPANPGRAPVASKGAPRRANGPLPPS
Cytochrome P450 3A4, sequence (P08684 whole entry): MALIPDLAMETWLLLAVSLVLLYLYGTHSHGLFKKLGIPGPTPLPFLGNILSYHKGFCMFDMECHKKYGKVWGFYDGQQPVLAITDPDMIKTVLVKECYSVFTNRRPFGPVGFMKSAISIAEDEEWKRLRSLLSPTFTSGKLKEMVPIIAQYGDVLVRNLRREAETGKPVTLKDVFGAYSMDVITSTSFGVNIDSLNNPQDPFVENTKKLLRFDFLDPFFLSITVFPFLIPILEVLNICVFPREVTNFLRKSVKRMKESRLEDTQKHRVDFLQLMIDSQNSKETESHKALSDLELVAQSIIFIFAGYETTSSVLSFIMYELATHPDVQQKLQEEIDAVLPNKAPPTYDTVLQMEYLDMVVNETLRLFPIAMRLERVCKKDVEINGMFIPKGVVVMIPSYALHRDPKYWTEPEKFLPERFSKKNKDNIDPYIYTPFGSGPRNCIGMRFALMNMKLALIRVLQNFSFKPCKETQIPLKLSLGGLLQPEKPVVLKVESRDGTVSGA
Cytochrome P450 2D6, sequence (P10635 whole entry): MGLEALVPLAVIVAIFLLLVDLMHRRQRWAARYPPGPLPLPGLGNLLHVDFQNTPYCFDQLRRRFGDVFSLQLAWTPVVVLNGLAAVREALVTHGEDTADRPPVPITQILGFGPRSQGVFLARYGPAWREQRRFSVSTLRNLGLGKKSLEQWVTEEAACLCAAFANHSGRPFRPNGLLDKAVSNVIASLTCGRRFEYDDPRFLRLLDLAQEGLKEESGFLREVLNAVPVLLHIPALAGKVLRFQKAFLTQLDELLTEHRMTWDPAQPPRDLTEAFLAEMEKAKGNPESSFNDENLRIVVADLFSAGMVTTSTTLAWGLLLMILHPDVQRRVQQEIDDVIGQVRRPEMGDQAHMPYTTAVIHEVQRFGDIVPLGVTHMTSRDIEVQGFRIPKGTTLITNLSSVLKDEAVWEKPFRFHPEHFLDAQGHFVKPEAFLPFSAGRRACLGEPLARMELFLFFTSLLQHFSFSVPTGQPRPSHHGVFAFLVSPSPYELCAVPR

- Cmax [1]: 702 ng/mL
- IC50 [2]: > 50 µM
- remaining at 1 h, 1 µM [4]: 23.1%
- IC50 [7]: 20.6 µM
- CLH [8]: 538 mL/h/kg
- IC50 [9]: 15.2 µM
- Cmax [10]: 705 ng/mL
- CLH [11]: 1.26 mL/h/kg
- remaining at 1 h, 1 µM [14]: 53.6%
- AUC(0-t) at 24 h [15]: 1760 ng·h/mL
- remaining at 1 h, 1 µM [16]: 92.3%
- AUC(0-inf) [17]: 1800 ng·h/mL
- Cmax [18]: 3050 ng/mL
- half-life at 1 µM [19]: > 3.82 h
- half-life at 1 µM [21]: 0.472 h
- CLH [22]: 2.94 mL/h/kg
- CLH [23]: 1.01 mL/h/kg
- AUC(0-inf) [24]: 1680 ng·h/mL
- remaining at 1 h, 1 µM [25]: 88.8%
- AUC(0-t) [26]: 1480 ng·h/mL
- bioavailability [30]: 110%
- bioavailability [31]: 29.7%
- CLH [33]: < 0.762 mL/h/kg
- half-life [34]: 6.16 h
- inhibition [35]: 90%
- Cmax [36]: 237 ng/mL
- Vd [37]: 8.36 L/kg
SMILES: CC(C)NC[C@@H](C(=O)N1CCN(c2ncnc3c2[C@H](C)CC(=O)N3)[C@H]2C[C@H]21)c1ccc(Cl)cc1
- Activity ([3]; dose 0.62 µM): 4.72%
- Activity ([3]; dose 2.5 µM): 6%
- Activity [5]: 38.97%
- viability at […] ([6]; dose 0.62 µM): 79.7%
- viability at […] ([6]; dose 2.5 µM): 55%
- inhibition in vivo at 12.5 mg/kg [12]: 84.1%
- Activity ([13]; dose 0.62 µM): 6.55%
- Activity ([13]; dose 2.5 µM): 22.54%
- Activity [20]: Active
- Activity [27]: Dde
- inhibition in vivo at 50 mg/kg [28]: 95.5%
- Activity [29]: Dde
- inhibition in vivo at 25 mg/kg [32]: 95.5%
